{
  "source": "patent US20240035033A1",
  "about": "“PREVENTION AND TREATMENT OF AGE-RELATED MACULAR DEGENERATION THROUGH SUPPRESSION OF CATHEPSIN S EXPRESSION” (CHUNG-ANG UNIVERSITY INDUSTRY-ACADEMIC COOPERATION …, priority 2022, published 2024)",
  "type_in_all_cases": "cell-based, human",
  "key": {"C3a and C5a": {"system": "C3a and C5a", "assay": "immunofluorescence analysis of C3a and C5a expression in RPE cells", "conditions": "siRNA 24 hours, Bay 1170-82 10 μM, control DMSO / control siRNA", "procedure": "In order to confirm the inhibitory effect of complement activity in the case of treatment with an inhibitor of cathepsin S expression or activity, RPE cells were treated with cathepsin S siRNA (CTSS siRNA, CTSSiRNA) and then the effect of inhibiting complement activity was analyzed. At this time, NF-κB inhibitor were treated as a comparison group. Specifically, RPE cells were treated with control siRNA or CTSS siRNA for 24 hours in the presence or absence of NF-κB inhibitor Bay 1170-82 (10 μM), respectively. After that, immunofluorescence analysis was performed for the expression of C3a and C5a in RPE cells. Experimental methods and conditions were applied in the same manner as in Example 3."}, "ARPE-19 cells": {"system": "ARPE-19 cells", "assay": "MTT viability of RPE cells according to H2O2 treatment", "conditions": "H2O2 6.25-100 μM, 48 hours, compared to the control", "procedure": "In order to confirm the decrease in viability of retinal pigment epithelium cells (RPE cells, hereinafter referred to as RPE cells) according to H2O2 treatment, MTT analysis was performed, and the viability and iNOS expression of RPE cells according to H2O2 treatment were confirmed.\nFirst, a human retinal-pigmented epithelial cell line (hereinafter referred to as ARPE-19 cells (ATCC, Manassas, VA, USA)) was used and inoculated into 96-well plates and cultured for 24 hours. Thereafter, the cells were treated with 6.25 μM 12.5 μM, 25 μM, 50 μM, and 100 μM H2O2 for 48 hours, a 3-(4,5-dimethylthiazol-2-yl)-2,5-diphenyl-tetrazolium bromide (MTT) solution was added to the medium, and the cells were cultured at 37° C. for 4 hours. The MTT-comprising medium was removed and the cells were lysed in 50 μl of DMSO. An optical density at 540 nm was confirmed using a microplate spectrophotometer (SpectraMax; Molecular Devices, Sunnyvale, CA, USA), and cell viability was determined by repeating each experiment three times to calculate an average value."}, "iNOS": {"system": "iNOS", "assay": "iNOS expression in RPE cells according to H2O2 treatment (RT-PCR, western blot)", "procedure": "In addition, the expression level of iNOS expressed in RPE cells according to H2O2 treatment was analyzed. Specifically, after RPE cells were treated with 10 μM, 50 μM, and 100 μM H2O2, relative iNOS mRNA expression levels were confirmed, and western blot experiments were performed. Total RNA was prepared using a Ribospin™ II kit from GeneAll Biotechnology (Seoul, South Korea) according to the manufacturer's recommendations. Total RNA (1 μg) was reverse transcribed into first-strand cDNA using an iScript™ cDNA Synthesis kit (Bio-Rad Laboratories, Inc., California, USA) according to the manufacturer's instructions, real-time reverse transcription-polymerase chain reaction (RT-PCR) was performed using a Thermal Cycler CFX96™ Real-Time PCR System (Bio-Rad Laboratories, USA), and each experiment was repeated three times to derive the results. RPE cells were washed with ice-cold PBS and then extracted with a protein lysis buffer (Intron Biotechnology, Seoul, South Korea). Protein samples of cell lysates were mixed with an equal volume of 2×SDS sample buffer, denatured by heating for 5 minutes and then separated on a 10% SDS-PAGE gel. After electrophoresis, proteins were transferred to a polyvinylidene difluoride membrane, and the membrane was blocked and washed using 5% BSA for 40 minutes. […]"}, "cathepsin S (CTSS) [1]": {"system": "cathepsin S (CTSS)", "assay": "cathepsin S expression in RPE cells under oxidative stress (mRNA, western blot)", "procedure": "To confirm the expression of cathepsin S (CTSS) in RPE cells under oxidative stress conditions, RPE cells were treated with H2O2 and the expression of cathepsin S (CTSS) was determined. Specifically, the cells was treated with 10 μM and 50 μM H2O2, cathepsin S mRNA expression level analysis and western blot experiments were performed in order to confirm the expression of cathepsin S, and the same experimental method and conditions as in Example 1 were applied, except that cathepsin S-specific antibodies were used."}, "cathepsin S (CTSS) [2]": {"system": "cathepsin S (CTSS)", "assay": "immunofluorescence analysis of cathepsin S in RPE cells", "conditions": "H2O2 50 μM, 48 hours", "procedure": "Immunofluorescence analysis was performed to confirm the suppression of cathepsin S in cathepsin S knockdown RPE cells of Example 3-1. Specifically, after cells prepared in the same manner as in the mRNA expression level analysis were washed twice with sterile PBS and fixed with 4% paraformaldehyde at room temperature for 30 minutes, the fixation was stopped by washing the cells three times with PBS. The cells were permeabilized with PBS comprising 0.01% Triton X-100 […]. After blocking for 1 hour, the insert membrane was removed using a scalpel and placed on Parafilm prior to being incubated with a primary antibody (depending on the protein of interest). All primary antibodies were diluted 1:50 in 5% BSA and PBS and used, and cultured at 4° C. overnight. Thereafter, the cells were washed three times with PBS and a secondary FITC- or TRITC-conjugated antibody was diluted 1:50 and applied at room temperature for 1 hour. After 1 mg/ml DAPI was added 10 minutes before removing a secondary antibody to stain the nuclei, the cells were coated with a mounting medium and a glass coverslip was placed on top. The membrane/coverslip was fixed to the glass slide using a mounting medium, and cells were observed under a fluorescence microscope (Leica DFC7000T)."}, "PPARγ and VEGFA/AKT": {"system": "PPARγ and VEGFA/AKT", "assay": "western blot of angiogenic factors in RPE cells", "conditions": "RPE cells treated with H2O2", "text": "(§1) In the case of treatment with an inhibitor of cathepsin S expression or activity, it was confirmed whether angiogenesis in RPE cells induced by oxidative stress was reduced. Specifically, the expression levels of PPARγ and VEGFA/AKT, which play key roles in neovascularization, differentiation, migration, and proliferation, were confirmed through western blotting experiments, and the experimental methods and conditions were applied in the same manner as in Example 2. In addition, to confirm the presence or absence of cell tube formation, HUVECs (1×10^5) were treated on a Matrigel-coated 96-well-plate with reduced growth factors, and then the cells were treated with a conditioned medium (CM) for 2 hours by treating RPE cells with CTSS siRNA and H2O2 at 37° C. for 48 hours, and images were analyzed with an inverted fluorescence microscope."}, "HUVECs": {"system": "HUVECs", "assay": "tube formation of HUVECs treated with conditioned medium of RPE cells", "conditions": "conditioned medium of H2O2-treated control RPE cells, 2 hours", "text": "as §1"}},
  "data": [
    {"smiles": "Cc1ccc(S(=O)(=O)/C=C/C#N)cc1", "note": "[Bay 1170-82]", "values": [
      {"measurement": "expression of C3a (immunofluorescence)", "setting": "C3a and C5a", "result": "suppressed"},
      {"measurement": "expression of C5a (immunofluorescence)", "setting": "C3a and C5a", "result": "suppressed"}
    ]},
    {"smiles": "OO", "note": "[H2O2]", "values": [
      {"measurement": "cell viability (MTT)", "setting": "ARPE-19 cells", "result": "decrease in cell viability"},
      {"measurement": "relative iNOS mRNA levels", "setting": "iNOS; RPE cells, 50 μM and 100 μM H2O2", "result": "increased"},
      {"measurement": "iNOS protein (western blot)", "setting": "iNOS; RPE cells, 10, 50, 100 μM H2O2", "result": "increased in a H2O2 concentration-dependent manner"},
      {"measurement": "cathepsin S protein band (western blot)", "setting": "cathepsin S (CTSS) [1]; 10 μM and 50 μM H2O2", "result": "appeared thick and dark"},
      {"measurement": "relative mRNA level of cathepsin S", "setting": "cathepsin S (CTSS) [1]; 10 μM and 50 μM H2O2, vs control", "result": "higher than that of the control"},
      {"measurement": "cathepsin S expression (red fluorescence)", "setting": "cathepsin S (CTSS) [2]", "result": "significantly increased"},
      {"measurement": "expression level of PPARγ (western blot)", "setting": "PPARγ and VEGFA/AKT", "result": "increased"},
      {"measurement": "expression level of VEGFA/AKT (p-AKT) (western blot)", "setting": "PPARγ and VEGFA/AKT", "result": "increased"},
      {"measurement": "tube formation", "setting": "HUVECs", "result": "marked increase in tube formation"}
    ]}
  ]
}
